Biological target: Aβ42 (Homo sapiens, UniProt P05067)
Assay: Th-T (thioflavin-T) assay of Aβ42 aggregation
Type: biochemical
Conditions: for Th-T fluorescence, mean of three wells: Aβ42 aggregation time course

Aβ42, sequence (P05067 672-713): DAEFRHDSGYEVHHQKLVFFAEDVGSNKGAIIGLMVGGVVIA

## C=C1CCC2C(C)(CCC=C(C)C)C(O)CCC2(C)C1Cc1c(OC)oc(CO)c(C)c1=O (stereo not drawn) [Compound 12]
  delay of the nucleation phase: no delay
  elongation of Aβ42: partly suppressed the elongation of Aβ42
Aβ42 (10 μM) ± DPPs (20 μM), room temperature
  first Th-T assay result: suppressed Aβ42
Reading M117
  Th-T fluorescence, mean of three wells: 2.054
Reading M118
  Th-T fluorescence, mean of three wells: 2.063
Reading M119
  Th-T fluorescence, mean of three wells: 2.053
Reading M120
  Th-T fluorescence, mean of three wells: 2.05
Reading M121
  Th-T fluorescence, mean of three wells: 2.047
Reading M122
  Th-T fluorescence, mean of three wells: 2.039
Reading M123
  Th-T fluorescence, mean of three wells: 2.052
Reading M124
  Th-T fluorescence, mean of three wells: 2.0354
Reading M125
  Th-T fluorescence, mean of three wells: 2.03
Reading M126
  Th-T fluorescence, mean of three wells: 2.03
Reading M127
  Th-T fluorescence, mean of three wells: 2.041
Reading M128
  Th-T fluorescence, mean of three wells: 2.036
Reading M129
  Th-T fluorescence, mean of three wells: 2.023
Reading M130
  Th-T fluorescence, mean of three wells: 2.033
Column suffix _10, measurement M19
  Th-T fluorescence, mean of three wells (Fig. 7a): 2.572
Column suffix _10, measurement M20
  Th-T fluorescence, mean of three wells (Fig. 7a): 2.604
Column suffix _10, measurement M21
  Th-T fluorescence, mean of three wells (Fig. 7a): 2.632
Column suffix _10, measurement M22
  Th-T fluorescence, mean of three wells (Fig. 7a): 2.671
Column suffix _10, measurement M23
  Th-T fluorescence, mean of three wells (Fig. 7a): 2.692
Column suffix _10, measurement M24
  Th-T fluorescence, mean of three wells (Fig. 7a): 2.757
Column suffix _10, measurement M25
  Th-T fluorescence, mean of three wells (Fig. 7a): 2.768
Column suffix _10, measurement M26
  Th-T fluorescence, mean of three wells (Fig. 7a): 2.841
Column suffix _10, measurement M27
  Th-T fluorescence, mean of three wells (Fig. 7a): 2.803
Column suffix _10, measurement M28
  Th-T fluorescence, mean of three wells (Fig. 7a): 2.855
Column suffix _10, measurement M29
  Th-T fluorescence, mean of three wells (Fig. 7a): 2.853
Column suffix _10, reading M1
  Th-T assay signal, mean of three wells (Fig. 7a): 0.2279
Column suffix _10, reading M2
  Th-T assay signal, mean of three wells (Fig. 7a): 0.2383
Column suffix _10, reading M3
  Th-T assay signal, mean of three wells (Fig. 7a): 0.2633
Column suffix _10, reading M4
  Th-T assay signal, mean of three wells (Fig. 7a): 0.2928
Column suffix _10, reading M5
  Th-T assay signal, mean of three wells (Fig. 7a): 0.3222
Column suffix _10, reading M6
  Th-T assay signal, mean of three wells (Fig. 7a): 0.3621
Column suffix _10, reading M7
  Th-T assay signal, mean of three wells (Fig. 7a): 0.3868
Column suffix _10, reading M8
  Th-T assay signal, mean of three wells (Fig. 7a): 0.4315
Column suffix _10, reading M9
  Th-T assay signal, mean of three wells (Fig. 7a): 0.4649
Column suffix _10, reading M10
  Th-T assay signal, mean of three wells (Fig. 7a): 0.5209
Column suffix _10, reading M11
  Th-T assay signal, mean of three wells (Fig. 7a): 0.5656
Column suffix _10, reading M12
  Th-T assay signal, mean of three wells (Fig. 7a): 0.6921
Column suffix _10, reading M13
  Th-T assay signal, mean of three wells (Fig. 7a): 1.089
Column suffix _10, reading M14
  Th-T assay signal, mean of three wells (Fig. 7a): 1.582
Column suffix _10, reading M15
  Th-T assay signal, mean of three wells (Fig. 7a): 1.98
Column suffix _10, reading M16
  Th-T assay signal, mean of three wells (Fig. 7a): 2.245
Column suffix _10, reading M17
  Th-T assay signal, mean of three wells (Fig. 7a): 2.406
Column suffix _10, reading M18
  Th-T assay signal, mean of three wells (Fig. 7a): 2.511
Column suffix _10, reading M85
  Fig. 7a Th-T reading, mean of three wells: 3.136
Column suffix _10, reading M86
  Fig. 7a Th-T reading, mean of three wells: 3.133
Column suffix _10, reading M87
  Fig. 7a Th-T reading, mean of three wells: 3.112
Column suffix _10, reading M88
  Fig. 7a Th-T reading, mean of three wells: 3.093
Column suffix _10, reading M89
  Fig. 7a Th-T reading, mean of three wells: 3.066
Column suffix _10, reading M90
  Fig. 7a Th-T reading, mean of three wells: 3.046
Column suffix _10, reading M91
  Fig. 7a Th-T reading, mean of three wells: 3.03
Column suffix _10, reading M92
  Fig. 7a Th-T reading, mean of three wells: 3.012
Column suffix _10, reading M93
  Fig. 7a Th-T reading, mean of three wells: 2.997
Column suffix _10, reading M94
  Fig. 7a Th-T reading, mean of three wells: 2.971
Column suffix _10, reading M95
  Fig. 7a Th-T reading, mean of three wells: 2.948
Column suffix _10, reading M96
  Fig. 7a Th-T reading, mean of three wells: 2.943
Column suffix _10, reading M97
  Fig. 7a Th-T reading, mean of three wells: 2.923
Column suffix _10, reading M98
  Fig. 7a Th-T reading, mean of three wells: 2.913
Column suffix _10, reading M99
  Fig. 7a Th-T reading, mean of three wells: 2.8964
Column suffix _10, reading M100
  Fig. 7a Th-T reading, mean of three wells: 2.873
Column suffix _10, reading M101
  Fig. 7a Th-T reading, mean of three wells: 2.854
Column suffix _10, reading M102
  Fig. 7a Th-T reading, mean of three wells: 2.835
Column suffix _10, reading M103
  Fig. 7a Th-T reading, mean of three wells: 2.818
Column suffix _10, reading M104
  Fig. 7a Th-T reading, mean of three wells: 2.806
Column suffix _10, reading M105
  Fig. 7a Th-T reading, mean of three wells: 2.7797
Column suffix _10, reading M106
  Fig. 7a Th-T reading, mean of three wells: 2.769
Column suffix _20, measurement M19
  Th-T fluorescence, mean of three wells (Fig. 7a): 2.538
Column suffix _20, measurement M20
  Th-T fluorescence, mean of three wells (Fig. 7a): 2.543
Column suffix _20, measurement M21
  Th-T fluorescence, mean of three wells (Fig. 7a): 2.5199
Column suffix _20, measurement M22
  Th-T fluorescence, mean of three wells (Fig. 7a): 2.494
Column suffix _20, measurement M23
  Th-T fluorescence, mean of three wells (Fig. 7a): 2.481
Column suffix _20, measurement M24
  Th-T fluorescence, mean of three wells (Fig. 7a): 2.476
Column suffix _20, measurement M25
  Th-T fluorescence, mean of three wells (Fig. 7a): 2.43
Column suffix _20, measurement M26
  Th-T fluorescence, mean of three wells (Fig. 7a): 2.427
Column suffix _20, measurement M27
  Th-T fluorescence, mean of three wells (Fig. 7a): 2.441
Column suffix _20, measurement M28
  Th-T fluorescence, mean of three wells (Fig. 7a): 2.387
Column suffix _20, measurement M29
  Th-T fluorescence, mean of three wells (Fig. 7a): 2.411
Column suffix _20, measurement M30
  Th-T fluorescence, mean of three wells (Fig. 7a): 2.389
Column suffix _20, reading M1
  Th-T assay signal, mean of three wells (Fig. 7a): 0.2949
Column suffix _20, reading M2
  Th-T assay signal, mean of three wells (Fig. 7a): 0.3314
Column suffix _20, reading M3
  Th-T assay signal, mean of three wells (Fig. 7a): 0.3699
Column suffix _20, reading M4
  Th-T assay signal, mean of three wells (Fig. 7a): 0.6391
Column suffix _20, reading M5
  Th-T assay signal, mean of three wells (Fig. 7a): 1.147
Column suffix _20, reading M6
  Th-T assay signal, mean of three wells (Fig. 7a): 1.822
Column suffix _20, reading M7
  Th-T assay signal, mean of three wells (Fig. 7a): 2.22
Column suffix _20, reading M8
  Th-T assay signal, mean of three wells (Fig. 7a): 2.421
Column suffix _20, reading M9
  Th-T assay signal, mean of three wells (Fig. 7a): 2.522
Column suffix _20, reading M10
  Th-T assay signal, mean of three wells (Fig. 7a): 2.562
Column suffix _20, reading M11
  Th-T assay signal, mean of three wells (Fig. 7a): 2.583
Column suffix _20, reading M12
  Th-T assay signal, mean of three wells (Fig. 7a): 2.606
Column suffix _20, reading M13
  Th-T assay signal, mean of three wells (Fig. 7a): 2.583
Column suffix _20, reading M14
  Th-T assay signal, mean of three wells (Fig. 7a): 2.612
Column suffix _20, reading M15
  Th-T assay signal, mean of three wells (Fig. 7a): 2.602
Column suffix _20, reading M16
  Th-T assay signal, mean of three wells (Fig. 7a): 2.5699
Column suffix _20, reading M17
  Th-T assay signal, mean of three wells (Fig. 7a): 2.585
Column suffix _20, reading M18
  Th-T assay signal, mean of three wells (Fig. 7a): 2.567
Column suffix _20, reading M85
  Fig. 7a Th-T reading, mean of three wells: 2.083
Column suffix _20, reading M86
  Fig. 7a Th-T reading, mean of three wells: 2.058
Column suffix _20, reading M87
  Fig. 7a Th-T reading, mean of three wells: 2.078
Column suffix _20, reading M88
  Fig. 7a Th-T reading, mean of three wells: 2.109
Column suffix _20, reading M89
  Fig. 7a Th-T reading, mean of three wells: 2.106
Column suffix _20, reading M90
  Fig. 7a Th-T reading, mean of three wells: 2.088
Column suffix _20, reading M91
  Fig. 7a Th-T reading, mean of three wells: 2.094
Column suffix _20, reading M92
  Fig. 7a Th-T reading, mean of three wells: 2.104
Column suffix _20, reading M93
  Fig. 7a Th-T reading, mean of three wells: 2.083
Column suffix _20, reading M94
  Fig. 7a Th-T reading, mean of three wells: 2.114
Column suffix _20, reading M95
  Fig. 7a Th-T reading, mean of three wells: 2.102
Column suffix _20, reading M96
  Fig. 7a Th-T reading, mean of three wells: 2.08
Column suffix _20, reading M97
  Fig. 7a Th-T reading, mean of three wells: 2.11
Column suffix _20, reading M98
  Fig. 7a Th-T reading, mean of three wells: 2.085
Column suffix _20, reading M99
  Fig. 7a Th-T reading, mean of three wells: 2.135
Column suffix _20, reading M100
  Fig. 7a Th-T reading, mean of three wells: 2.117

Reference: PMC7156458, “Synthetic biology based construction of biological activity-related library of fungal decalin-containing diterpenoid pyrones” (Nature Communications, 2020)
